Measured values from patent publication EP2327700A1, “Dialkyl triazinamines and use thereof for combating undesired plant growth” (Bayer CropScience AG, priority 2009, dated 2011).

Experiments:
Stellaria media [1] = test: Herbicidal action pre-emergence (greenhouse pot test); assay type: in vivo; conditions: 320 g/ha, visual rating after 3 weeks vs untreated controls
Description: (§1) • 1. Herbizide Wirkung bzw. Kulturpflanzenverträglichkeit im Vorauflauf Samen von mono- bzw. dikotylen Unkraut- bzw. Kulturpflanzen werden in Holzfasertöpfen in sandiger Lehmerde ausgelegt und mit Erde abgedeckt. Die in Form von benetzbaren Pulvern (WP) oder als Emulsionskonzentrate (EC) formulierten erfindungsgemäßen Verbindungen werden dann als wäßrige Suspension bzw. Emulsion mit einer Wasseraufwandmenge von umgerechnet 600 bis 800 I/ha unter Zusatz von 0,2% Netzmittel auf die Oberfläche der Abdeckerde appliziert. Nach der Behandlung werden die Töpfe im Gewächshaus aufgestellt und unter guten Wachstumsbedingungen für die Testpflanzen gehalten. Die visuelle Bonitur der Schäden an den Versuchspflanzen erfolgt nach einer Versuchszeit von 3 Wochen im Vergleich zu unbehandelten Kontrollen (herbizide Wirkung in Prozent (%): 100% Wirkung = Pflanzen sind abgestorben, 0 % Wirkung = wie Kontrollpflanzen). Dabei zeigen beispielsweise die Verbindungen Nr. I-16, I-17, I-48, I-50, I-51, I-52, I-54 und I-63 bei einer Aufwandmenge von 320 g/ha jeweils eine mindestens 80%-ige Wirkung gegen Lolium multiflorum, Setaria viridis und Stellaria media. Die Verbindungen Nr. I-64, I-65, I-66, I-68, I-69 und I-70 zeigen bei einer Aufwandmenge von 320 g/ha jeweils eine mindestens 80%-ige Wirkung gegen Amaranthus retroflexus, Pharbitis purpureumund Veronica persica. • 2. Herbizide Wirkung bzw. Kulturpflanzenverträglichkeit im Nachauflauf Samen von mono- bzw. dikotylen Unkraut- bzw. Kulturpflanzen werden in Holzfasertöpfen in sandigem Lehmboden ausgelegt, mit Erde abgedeckt und im Gewächshaus unter guten Wachstumsbedingungen angezogen. 2 bis 3 Wochen nach der Aussaat werden die Versuchspflanzen im Einblattstadium behandelt. Die in Form von benetzbaren Pulvern (WP) oder als Emulsionskonzentrate (EC) formulierten erfindungsgemäßen Verbindungen werden dann als wäßrige Suspension bzw. Emulsion mit einer Wasseraufwandmenge von umgerechnet 600 bis 800 I/ha unter Zusatz von 0,2% Netzmittel auf die grünen Pflanzenteile gesprüht. Nach ca. 3 Wochen Standzeit der Versuchspflanzen im Gewächshaus unter optimalen Wachstumsbedingungen wird die Wirkung der Präparate visuell im Vergleich zu unbehandelten Kontrollen bonitiert (herbizide Wirkung in Prozent (%): 100% Wirkung = Pflanzen sind abgestorben, 0 % Wirkung = wie Kontrollpflanzen). Dabei zeigen beispielsweise die Verbindungen Nr. I-50, I-52, I-54 und I-64 bei einer Aufwandmenge von 320 g/ha jeweils eine mindestens 80%-ige Wirkung gegen Alopecurus myosuroides, Setaria viridis und Stellaria media. Die Verbindungen Nr. I-51, I-63, I-66, I-69 und I-70 zeigen bei einer Aufwandmenge von 320 g/ha jeweils eine mindestens 80%-ige Wirkung gegen Alopecurus myosuroides, Veronica persica und Viola tricolor.

Setaria viridis [2] = test: as above; assay type: in vivo; conditions: 320 g/ha, visual rating after 3 weeks vs untreated controls
Description: as §1

Lolium multiflorum = test: as above; assay type: in vivo; conditions: 320 g/ha, visual rating after 3 weeks vs untreated controls
Description: as §1

Stellaria media [3] = test: Herbicidal action post-emergence (greenhouse pot test); assay type: in vivo; conditions: 320 g/ha, visual rating after ca. 3 weeks vs untreated controls
Description: as §1

Setaria viridis [4] = test: as above; assay type: in vivo; conditions: 320 g/ha, visual rating after ca. 3 weeks vs untreated controls
Description: as §1

Alopecurus myosuroides = test: as above; assay type: in vivo; conditions: 320 g/ha, visual rating after ca. 3 weeks vs untreated controls
Description: as §1

[5] = logp (HCOOH) determination; assay type: physicochemical
Veronica persica [6] = test: Herbicidal action post-emergence (greenhouse pot test); assay type: in vivo; conditions: 320 g/ha, visual rating after ca. 3 weeks vs untreated controls
Description: as §1

Viola tricolor = test: as above; assay type: in vivo; conditions: 320 g/ha, visual rating after ca. 3 weeks vs untreated controls
Description: as §1

Veronica persica [7] = test: Herbicidal action pre-emergence (greenhouse pot test); assay type: in vivo; conditions: 320 g/ha, visual rating after 3 weeks vs untreated controls
Description: as §1

Pharbitis purpureum = test: as above; assay type: in vivo; conditions: 320 g/ha, visual rating after 3 weeks vs untreated controls
Description: as §1

Amaranthus retroflexus = test: as above; assay type: in vivo; conditions: 320 g/ha, visual rating after 3 weeks vs untreated controls
Description: as §1

Cc1cc(C)c2c(c1)C(Nc1nc(C)nc(C)n1)CCC2 (stereo not drawn) [I-17, N2-(5,7-Dimethyl-1,2,3,4-tetrahydro-1-naphthalenyl)-4,6-dimethyl-1,3,5-triazin-2-amine]
herbizide Wirkung in Prozent (%) (Stellaria media [1]): ≥ 80% | herbizide Wirkung in Prozent (%) (Setaria viridis [2]): ≥ 80% | herbizide Wirkung in Prozent (%) (Lolium multiflorum): ≥ 80%

Cc1ccc2c(c1)[C@H](Nc1nc(C)nc(C(C)C)n1)[C@@H](C)C2 [I-50]
herbizide Wirkung in Prozent (%) (Stellaria media [3]): ≥ 80% | herbizide Wirkung in Prozent (%) (Setaria viridis [4]): ≥ 80% | herbizide Wirkung in Prozent (%) (Alopecurus myosuroides): ≥ 80% | chromatographic logP ([5]; hcooh): 2.16 | herbizide Wirkung in Prozent (%) (Stellaria media [1]): ≥ 80% | herbizide Wirkung in Prozent (%) (Setaria viridis [2]): ≥ 80% | herbizide Wirkung in Prozent (%) (Lolium multiflorum): ≥ 80%

Cc1ccc2c(c1)[C@H](Nc1nc(C)nc(C(C)(C)C)n1)[C@@H](C)C2 [I-51]
herbizide Wirkung in Prozent (%) (Veronica persica [6]): ≥ 80% | herbizide Wirkung in Prozent (%) (Viola tricolor): ≥ 80% | herbizide Wirkung in Prozent (%) (Alopecurus myosuroides): ≥ 80% | chromatographic logP ([5]; hcooh): 3.56 | herbizide Wirkung in Prozent (%) (Stellaria media [1]): ≥ 80% | herbizide Wirkung in Prozent (%) (Setaria viridis [2]): ≥ 80% | herbizide Wirkung in Prozent (%) (Lolium multiflorum): ≥ 80%

CCc1nc(C)nc(N[C@H]2c3cc(C)ccc3C[C@@H]2C)n1 [I-52]
herbizide Wirkung in Prozent (%) (Stellaria media [3]): ≥ 80% | herbizide Wirkung in Prozent (%) (Setaria viridis [4]): ≥ 80% | herbizide Wirkung in Prozent (%) (Alopecurus myosuroides): ≥ 80% | chromatographic logP ([5]; hcooh): 1.85 | herbizide Wirkung in Prozent (%) (Stellaria media [1]): ≥ 80% | herbizide Wirkung in Prozent (%) (Setaria viridis [2]): ≥ 80% | herbizide Wirkung in Prozent (%) (Lolium multiflorum): ≥ 80%

CCc1nc(C)nc(N[C@@H]2CCCc3ccccc32)n1 [I-53]
chromatographic logP ([5]; hcooh): 1.48

COCc1nc(C)nc(N[C@H]2c3cc(C)ccc3C[C@@H]2C)n1 [I-54, N-[(1R,2S)-2,6-Dimethyl-2,3-dihydro-1H-inden-1-yl]-4-(methoxymethyl)-6-methyl-1,3,5-triazin-2-amin]
herbizide Wirkung in Prozent (%) (Stellaria media [3]): ≥ 80% | herbizide Wirkung in Prozent (%) (Setaria viridis [4]): ≥ 80% | herbizide Wirkung in Prozent (%) (Alopecurus myosuroides): ≥ 80% | chromatographic logP ([5]; HCOOH (formic acid)): 2.16 | herbizide Wirkung in Prozent (%) (Stellaria media [1]): ≥ 80% | herbizide Wirkung in Prozent (%) (Setaria viridis [2]): ≥ 80% | herbizide Wirkung in Prozent (%) (Lolium multiflorum): ≥ 80%

Cc1ccc2c(c1)[C@H](Nc1nc(C)nc(C)n1)[C@@H](C)C2 [I-63]
herbizide Wirkung in Prozent (%) (Veronica persica [6]): ≥ 80% | herbizide Wirkung in Prozent (%) (Viola tricolor): ≥ 80% | herbizide Wirkung in Prozent (%) (Alopecurus myosuroides): ≥ 80% | chromatographic logP ([5]; hcooh): 1.59 | herbizide Wirkung in Prozent (%) (Stellaria media [1]): ≥ 80% | herbizide Wirkung in Prozent (%) (Setaria viridis [2]): ≥ 80% | herbizide Wirkung in Prozent (%) (Lolium multiflorum): ≥ 80%

Cc1ccc2c(c1)[C@H](Nc1nc(C)nc(C(F)F)n1)[C@@H](C)C2 [I-64]
herbizide Wirkung in Prozent (%) (Stellaria media [3]): ≥ 80% | herbizide Wirkung in Prozent (%) (Setaria viridis [4]): ≥ 80% | herbizide Wirkung in Prozent (%) (Alopecurus myosuroides): ≥ 80% | chromatographic logP ([5]; hcooh): 3.44 | herbizide Wirkung in Prozent (%) (Veronica persica [7]): ≥ 80% | herbizide Wirkung in Prozent (%) (Pharbitis purpureum): ≥ 80% | herbizide Wirkung in Prozent (%) (Amaranthus retroflexus): ≥ 80%

Cc1ccc2c(c1)[C@H](Nc1nc(C)nc(C(F)(F)Cl)n1)[C@@H](C)C2 [I-66]
herbizide Wirkung in Prozent (%) (Veronica persica [6]): ≥ 80% | herbizide Wirkung in Prozent (%) (Viola tricolor): ≥ 80% | herbizide Wirkung in Prozent (%) (Alopecurus myosuroides): ≥ 80% | chromatographic logP ([5]; hcooh): 4.36 | herbizide Wirkung in Prozent (%) (Veronica persica [7]): ≥ 80% | herbizide Wirkung in Prozent (%) (Pharbitis purpureum): ≥ 80% | herbizide Wirkung in Prozent (%) (Amaranthus retroflexus): ≥ 80%

Cc1nc(N[C@@H]2CCCc3ccccc32)nc(C(F)(F)Cl)n1 [I-67]
chromatographic logP ([5]; hcooh): 3.9

Cc1ccc2c(c1)[C@H](Nc1nc(C)nc(C(Cl)Cl)n1)[C@@H](C)C2 [I-69]
herbizide Wirkung in Prozent (%) (Veronica persica [6]): ≥ 80% | herbizide Wirkung in Prozent (%) (Viola tricolor): ≥ 80% | herbizide Wirkung in Prozent (%) (Alopecurus myosuroides): ≥ 80% | chromatographic logP ([5]; hcooh): 4.13 | herbizide Wirkung in Prozent (%) (Veronica persica [7]): ≥ 80% | herbizide Wirkung in Prozent (%) (Pharbitis purpureum): ≥ 80% | herbizide Wirkung in Prozent (%) (Amaranthus retroflexus): ≥ 80%

Cc1ccc2c(c1)[C@H](Nc1nc(C)nc(C(Cl)(Cl)Cl)n1)[C@@H](C)C2 [I-70, N-[(1R,2S)-2,6-Dimethyl-2,3-dihydro-1H-inden-1-yl]-4-methyl-6-(trichloromethyl)-1,3,5-triazin-2-amin]
herbizide Wirkung in Prozent (%) (Veronica persica [6]): ≥ 80% | herbizide Wirkung in Prozent (%) (Viola tricolor): ≥ 80% | herbizide Wirkung in Prozent (%) (Alopecurus myosuroides): ≥ 80% | chromatographic logP ([5]; HCOOH (formic acid)): 4.85 | herbizide Wirkung in Prozent (%) (Veronica persica [7]): ≥ 80% | herbizide Wirkung in Prozent (%) (Pharbitis purpureum): ≥ 80% | herbizide Wirkung in Prozent (%) (Amaranthus retroflexus): ≥ 80%

Cc1nc(N[C@@H]2CCCc3ccccc32)nc(C(Cl)(Cl)Cl)n1 [I-71]
chromatographic logP ([5]; hcooh): 4.4

Cc1nc(C)nc(N[C@@H]2CCCc3ccccc32)n1 [I-78, 4,6-Dimethyl-N-[(1R)-1,2,3,4-tetrahydronaphthalen-1-yl]-1,3,5-triazin-2-amine]
chromatographic logP ([5]; HCOOH (formic acid)): 1.35

Cc1nc(N[C@H]2c3cc(Br)ccc3C[C@@H]2C)nc(C(F)(F)Cl)n1 [I-81]
chromatographic logP ([5]; hcooh): 3.8

Cc1nc(NC2CC(C)(C)Oc3cc(Cl)c(F)cc32)nc(C(F)(F)Cl)n1 (stereo not drawn) [I-82]
chromatographic logP ([5]; hcooh): 4.32

Cc1nc(N[C@@H]2CCOc3c(F)cccc32)nc(C(F)(F)Cl)n1 [I-83]
chromatographic logP ([5]; hcooh): 3.06

Cc1nc(N[C@@H]2CCOc3ccccc32)nc(C(F)(F)Cl)n1 [I-84]
chromatographic logP ([5]; hcooh): 3.11

Cc1ccc2c(c1)[C@H](Nc1nc(C)nc(C(F)(F)F)n1)[C@@H](C)C2 [I-87]
chromatographic logP ([5]; hcooh): 4.21

Cc1nc(N[C@@H]2CCc3ccccc32)nc(C(F)F)n1 [I-91]
chromatographic logP ([5]; hcooh): 2.69

Cc1nc(NC2CC(C)(C)Oc3cc(Cl)c(F)cc32)nc(C(F)F)n1 (stereo not drawn) [I-95]
chromatographic logP ([5]; hcooh): 4.32

Cc1nc(NC2CCc3ccc(C(C)C)cc32)nc(C(F)F)n1 (stereo not drawn) [I-100]
chromatographic logP ([5]; hcooh): 3.79

CCOc1ccc2c(c1)C(Nc1nc(C)nc(C(F)F)n1)CCC2 (stereo not drawn) [I-122]
chromatographic logP ([5]; hcooh): 3.34

Cc1nc(NC2CCOc3ccc(C(C)C)cc32)nc(C(F)F)n1 (stereo not drawn) [I-125]
chromatographic logP ([5]; hcooh): 3.41

Cc1ccc2c(c1)OC(C)(C)CC2Nc1nc(C)nc(C(F)F)n1 (stereo not drawn) [I-130]
chromatographic logP ([5]; hcooh): 3.3

CCc1ccc2c(c1)C(Nc1nc(C)nc(C(F)F)n1)CCO2 (stereo not drawn) [I-134]
chromatographic logP ([5]; hcooh): 3.1

CCc1ccc2c(c1)C(Nc1nc(C)nc(C(F)(F)F)n1)CCO2 (stereo not drawn) [I-135]
chromatographic logP ([5]; hcooh): 3.71

Cc1nc(NC2c3ccc(Cl)cc3CC2C)nc(C(F)F)n1 (stereo not drawn) [I-137]
chromatographic logP ([5]; hcooh): 3.58

Cc1nc(NC2CCc3c(C)cccc32)nc(C(F)(F)Cl)n1 (stereo not drawn) [I-147]
chromatographic logP ([5]; hcooh): 3.98

COc1ccc2c(c1)CCCC2Nc1nc(C)nc(C(F)F)n1 (stereo not drawn) [I-159]
chromatographic logP ([5]; hcooh): 2.9

Cc1nc(C)nc(NC2CCc3c(C)cccc32)n1 (stereo not drawn) [I-168, 4,6-Dimethyl-N-(4-methyl-2,3-dihydro-1H-inden-1-yl)-1,3,5-triazin-2-amine]
chromatographic logP ([5]; HCOOH (formic acid)): 1.36

Cc1nc(N[C@H]2c3cc(Br)ccc3C[C@@H]2C)nc(C(F)F)n1 [I-235, N-[trans-6-Brom-2-methyl-2,3-dihydro-1H-inden-1-yl]-4-(difluoromethyl)-6-methyl-1,3,5-triazin-2-amin]
chromatographic logP ([5]; hcooh): 3.55

COc1ccc2c(c1)C(Nc1nc(C)nc(C(F)(F)F)n1)CCO2 (stereo not drawn) [I-237]
chromatographic logP ([5]; hcooh): 2.93

CCc1ccc2c(c1)C(Nc1nc(C)nc(C)n1)CCO2 (stereo not drawn) [I-238]
chromatographic logP ([5]; hcooh): 1.51
